Results on 5 molecules are retold here after patent US12312473B2, “Composition, film, near-infrared cut filter, pattern forming method, laminate, solid-state imaging element, infrared sensor, image display device, camera module, and compound” (FUJIFILM Corporation, priority 2019, dated 2025).

Usually solubility stands for the dissolved amount per volume that the medium holds.

Converted amounts (≈) assume the structure as drawn.

A short description of this data set: Solubility of coloring agent in PGMEA. The conditions noted are these: propylene glycol methyl ether acetate (PGMEA), organic solvent or mixture, thermodynamic from solid, approx. 100 mg in 1 L propylene glycol methyl ether acetate at 25° C., stirred 30 minutes. It counts as physicochemical. The protocol:
In the present disclosure, the solubility of the coloring agent having a structure represented by Formula (1) (that is, the specific coloring agent) is measured and obtained by the following method.
Under atmospheric pressure, approximately 100 mg (precisely weighed value is X mg) of the coloring agent having a structure represented by Formula (1) is added to 1 L of propylene glycol methyl ether acetate at 25° C., and the mixture is stirred for 30 minutes, allowed to stand for 5 minutes, and filtered. Thereafter, the filtrate is dried under reduced pressure at 80° C. for 2 hours and precisely weighed (precisely weighed value is Y mg), and the solubility of the specific coloring agent dissolved in propylene glycol methyl ether acetate is calculated from the following expression. PGMEA solubility (mg/L) of specific coloring agent=X—Y
Under atmospheric pressure, approximately 100 mg of the dispersion liquid of the coloring agents shown in Tables 1 to 4 (value of the coloring agents shown Tables 1 to 4 precisely weighed is defined as X mg) was added to 1 L of propylene glycol methyl ether acetate at 25° C., and the mixture was stirred for 30 minutes. Next, the mixture was allowed to stand for 5 minutes and filtered, and the filtrate was dried under reduced pressure at 80° C. for 2 hours and weighed precisely (value of the filtrate precisely weighed is defined as Y mg). Solubility of the coloring agents shown in Tables 1 to 4 dissolved in propylene glycol methyl ether acetate was calculated from the following expression.
As for `O=C1C(=O)/C(=C2/C=CC(=[N+]3CCC(C(=O)Oc4ccc(OC(=O)C5CC[N+](=C6C=C/C(=C7/C(=O)C(=O)C(c8ccc(N9CCC(C(=O)O)CC9)s8)=C7[O-])S6)CC5)cc4)CC3)S2)C([O-])=C1c1ccc(N2CCC(C(=O)O)CC2)s1` (centres unmarked) [A-cr-1], the solubility at 30 min is 50 to 100 µg/mL (≈ 44.2 to 88.4 µM).
The value for `O=C1C(c2ccc3cccc4c3c2NC2(N4)c3ccccc3-c3ccc(OC(=O)c4ccc(C(=O)Oc5ccc6c(c5)C5(N=c7/c(=C8/C(=O)C(c9ccc%10cccc%11c%10c9NC9(N%11)c%10ccccc%10-c%10ccccc%109)=C8O)ccc8cccc(c78)N5)c5ccccc5-6)cc4)cc32)=C(O)/C1=c1/ccc2cccc3c2c1=NC1(N3)c2ccccc2-c2ccccc21` (centres unmarked) [A-sq-1] was less than 10 µg/mL; that for `CC(=O)Nc1cc2c(cc1C1=C([O-])/C(=c3/cc4c(cc3NC(=O)c3ccc(C(=O)Nc5cc6c(cc5C5=C([O-])/C(=c7/cc8c(cc7NC(C)=O)=[N+](C)C(C)C8(C)C)C5=O)C(C)(C)C(C)N6C)cc3)=[N+](C)C(C)C4(C)C)C1=O)C(C)(C)C(C)N2C` (centres unmarked) [A-sq-3] was less than 10 µg/mL.
With `O=C1C(c2ccc3cccc4c3c2NB(c2ccc(-c3ccc(B5Nc6cccc7ccc(C8=C(O)/C(=c9/ccc%10cccc%11c%10c9=NB(c9ccccc9)N%11)C8=O)c(c67)N5)cc3)cc2)N4)=C(O)/C1=c1/ccc2cccc3c2c1=NB(c1ccccc1)N3` [A-sq-5] the figure was less than 10 µg/mL.
In the case of `O=C1C(c2ccc3cccc4c3c2NC2(N4)c3ccccc3-c3ccccc32)=C(O)C1C1C=Cc2cccc3c2C1=NC1(N3)c2ccccc2-c2ccccc21` (centres unmarked) [compound 3, reference compound], the solubility at 30 min is less than 10 µg/mL.
